The values that follow come from patent publication US6821993B1, “Triazepine derivatives as neurotrophic agents” (Ortho-McNeil Pharmaceutical, Inc., priority 2001, dated 2004).

For test [1], the system named is Primary Rat Hippocampal Cells. Briefly: Neurite outgrowth assay in primary rat hippocampal cells. To be noted: MAP-2 immunofluorescence, embryonic day 18 rat hippocampal cells, 7 days in culture. In kind it is cell-based. As for the experimental part:
Hippocampal cells were dissected from the brains of embryonic day 18 rat pups and dissociated with trypsin (1 mg/mL) and trituration. Cells were seeded at 30,000 cells/well in 96-well plates filled with 100 μL MEM and 10% FBS. At 7 days in culture, cells were fixed with 4% paraformaldehyde and immuno-fluorescence is performed.
(§1) Cultures were incubated with normal horse serum (1:50; Vector Labs) or about 20 min, rinsed and then incubated with primary antibody, microtubule associated-protein 2 (anti-mouse MAP-2; 1:1000; Chemicon) for about 2 h at about RT. Following primary antibody, cultures were rinsed and incubated with fluorescein anti-mouse IgG (rat absorbed; 1:50; Vector Labs) for about 1 h. After fluorescein incubation, the cultures were rinsed and read in PBS on a fluorescent plate reader (excitation: 485 nm; emission: 530 nm). A compound was regarded as active if the neurite outgrowth response is greater than the mean DMSO-treated control response on the same plate. The response to test compound was reported as percent of DMSO-treated control. The signal-to-noise separation is consistent: the fluorescence from DMSO control wells is at least twofold greater than blank wells.

Test [2] has as its system M17 human neuroblastoma cells. Nature of the test: Neurite outgrowth assay in human M17 neuroblastoma cells. As to conditions: MAP-2 immunofluorescence. In kind it is cell-based. As for the experimental part:
M17 human neuroblastoma cells were cultured in 1:1 ratio of EMEM and Ham's F12 with 1×NEAA and 10% FBS. The culture media contained 1×PSN antibiotic and was exchanged every other day, and the cells were passed in log phase near confluence.
as §1

The subject of test [3] is Dorsal Root Ganglion (DRG). Nature of the test: Dorsal Root Ganglion (DRG) culture neurite outgrowth. Format: cell-based, rat. As to conditions: neurite outgrowth from DRG of newborn or 1-day-old CD rats; test compound 50-250 nM; examined on days 1-5. The method, then:
DRG were dissected from newborn or 1-day-old CD rats and placed into PBS on ice. After rinsing twice with sterile plating medium, DRG were transferred to empty wells of a 6-well plate coated with polyornithine/laminin (Becton Dickinson Labware) using #7 curved forceps. Three ml/well of plating medium were then added very gently, so as not to disturb the DRG plating medium is Leibovitz's L-15 medium (Gibco), plus 0.6% glucose, 33 mM KCl, 10% FCS, 10 mM Hepes and penicillin/streptomycin/glutamine. After overnight incubation at about 37° C. in 5% CO2, this medium was replaced with 3 mL/well of assay medium [Leibovitz's L-15 medium plus 0.6% glucose, 1% FCS, 1% N-2 supplement (Gibco), 10 μM ara-C, 10 mM Hepes, and penicillin/streptomycin/glutamine] containing either vehicle (DMSO, 1/200,000), positive control (2-4 ng/mL NGF) or test compound (50-250 nM). All media were prepared fresh daily. DRG were microscopically examined for neurite outgrowth on days 1-5.

`CCC(C)(C)C1=NNC(=O)C2CCCCN2C1=O` (stereo not shown) [(4)]: the “Rat Hippocampal Cell Response” value in test [1] is reported as 140% of DMSO-treated control. Besides, in test [2], the “M17 Cell Response” value was <100% of DMSO-treated control.

Take `CCC(C)(C)C1=NNC(=O)[C@@H]2CCCN2C1=O` [(1), 1H-pyrrolo[2,1-d][1,2,5]triazepine-1,5(2H)-dione, 4-(1,1-dimethylpropyl)-7,8,9,9a-tetrahydro-, (9aS)-]: in test [1], the “Rat Hippocampal Cell Response” value is on record as 123% of DMSO-treated control. In addition, the DRG result in test [3] is given as “+ (An experiment was considered positive (+) if the instant compound induced neurites of ≧1 diameter of the DRG)”. Besides, in test [2], the “M17 Cell Response” value is reported as 115% of DMSO-treated control.

For `O=C1[C@@H]2CSCN2C(=O)C(c2cccs2)=NN1CCC(c1ccccc1)c1ccccc1` [(6), 1H,7H-thiazolo[4,3-d][1,2,5]triazepine-1,5(2H)-dione, 2-(3,3-diphenylpropyl)-9,9a-dihydro-4-(2-thienyl)-, (9aR)-], the “Rat Hippocampal Cell Response” value in test [1] was 105% of DMSO-treated control. Moreover, the “M17 Cell Response” value in test [2] is reported as <100% of DMSO-treated control.

For the compound `O=C1NN=C(c2cccs2)C(=O)N2CSC[C@@H]12` [(5), 1H,7H-thiazolo[4,3-d][1,2,5]triazepine-1,5(2H)-dione, 9,9a-dihydro-4-(2-thienyl)-, (9aR)-], the “Rat Hippocampal Cell Response” value in test [1] is 105% of DMSO-treated control. For the same compound, the “M17 Cell Response” value in test [2] is <100% of DMSO-treated control.

With `CCC(C)(C)C1=NN(CCCc2cccnc2)C(=O)[C@@H]2CCCN2C1=O` [(3), 1H-pyrrolo[2,1-d][1,2,5]triazepine-1.5(2H)-dione, 4-(1,1-dimethylpropyl)-7,8,9,9a-tetrahydro-2-[3-(3-pyridinyl)propyl]-, (9aS)-], the “Rat Hippocampal Cell Response” value in test [1] is 145% of DMSO-treated control. Moreover, the “M17 Cell Response” value in test [2] was <100% of DMSO-treated control.

`CCC(C)(C)C1=NN(CCCc2ccccc2)C(=O)[C@@H]2CCCN2C1=O` [(2), 1H-pyrrolo[2,1-d][1,2,5]triazepine-1,5(2H)-dione, 4-(1,1-dimethylpropyl)-7,8,9,9a-tetrahydro-2-(3-phenylpropyl)-, (9aS)-]: the “Rat Hippocampal Cell Response” value in test [1] is <100% of DMSO-treated control. Further, the “M17 Cell Response” value in test [2] was <100% of DMSO-treated control.
